The values that follow are results of earlier work, collected in patent publication US4127521A, “Novel octacosapeptides, intermediates therefor and pharmaceutical compositions and methods employing said octacosapeptides” (priority 1977, dated 1978).

For series [1] the following is noted: injected directly into the brain of the rat.
Series [2] deals with brain opiate receptor sites.

Regarding “H-Tyr-Gly-Gly-Phe-Met-OH [methionine enkephalin]”, the analgesic activity result in series [1] is “weak analgesic agent of short duration”. Moreover, the “binding to partially purified brain opiate receptor sites” value in series [2] is recorded as “binds stereo-specifically”.
